Our source for the Ki values is BindingDB's records for doi:10.1111/j.1747-0285.2007.00535.x (Abbott Laboratories, 2007).

The assay addresses Heat shock protein HSP 90-alpha (Homo sapiens, UniProt P07900). In words: FRET Assay. Conditions: pH 7.5; 25 °C.

As usually defined, the Ki is a dissociation constant, usually derived from enzyme kinetics or from competition with a known ligand. As for `Cc1cc(-c2ccc(Cl)cc2Cl)nc(N)n1` [HSP90 Inhibitor, 4], the Ki is 170 nM.

As for `Cc1cc(C=Cc2ccccc2/C=N/N2CCOC2=O)nc(N)n1` [HSP90 Inhibitor, 7], the Ki is 4000 nM.

In the case of `Nc1nc(Cl)cc(-c2ccc(Cl)cc2Cl)n1` [HSP90 Inhibitor, 5], the Ki was 60 nM.
